Results as given in patent US11541028B2, “Peptide pharmaceuticals for treatment of NASH and other disorders” (Mederis Diabetes LLC, priority 2018, dated 2023).
Bridge positions count the residues as written; N and C are the ends. Square brackets hold non-standard residues; d marks the D form. Peptide text beside a SMILES is read from it. * marks the point of attachment. Melibiouronoyl(1β-O-dodecyl) = CCCCCCCCCCCCO[C@@H]1O[C@H](CO[C@H]2O[C@H](C(=O)*)[C@H](O)[C@H](O)[C@H]2O)[C@@H](O)[C@H](O)[C@H]1O; X1 = CCCCCCCCCCCCCCCCO[C@@H]1O[C@H](CO[C@H]2O[C@H](C(=O)*)[C@H](O)[C@H](O)[C@H]2O)[C@@H](O)[C@H](O)[C@H]1O; Aib = CC(C)(N)C(=O)O

How the values were obtained:
human GLP-1 receptor = molecular target: T1, human GLP-1 receptor (Homo sapiens, UniProt P43220); assay: DiscoveRx LeadHunter cellular assay, cAMP stimulation, GLP-1 receptor in CHO cells; format: cell-based; details: human GLP-1 receptor in CHO cells (DiscoveRx); read-out: EC50 cAMP GLP-1 R
T1 construct: host or cells: CHO cells

human glucagon receptor = molecular target: T2, human glucagon receptor (Homo sapiens, UniProt P47871); assay: DiscoveRx LeadHunter cellular assay, cAMP stimulation, glucagon receptor in CHO cells; format: cell-based
T2 construct: host or cells: CHO cells
T2 sequence (P47871 26-477): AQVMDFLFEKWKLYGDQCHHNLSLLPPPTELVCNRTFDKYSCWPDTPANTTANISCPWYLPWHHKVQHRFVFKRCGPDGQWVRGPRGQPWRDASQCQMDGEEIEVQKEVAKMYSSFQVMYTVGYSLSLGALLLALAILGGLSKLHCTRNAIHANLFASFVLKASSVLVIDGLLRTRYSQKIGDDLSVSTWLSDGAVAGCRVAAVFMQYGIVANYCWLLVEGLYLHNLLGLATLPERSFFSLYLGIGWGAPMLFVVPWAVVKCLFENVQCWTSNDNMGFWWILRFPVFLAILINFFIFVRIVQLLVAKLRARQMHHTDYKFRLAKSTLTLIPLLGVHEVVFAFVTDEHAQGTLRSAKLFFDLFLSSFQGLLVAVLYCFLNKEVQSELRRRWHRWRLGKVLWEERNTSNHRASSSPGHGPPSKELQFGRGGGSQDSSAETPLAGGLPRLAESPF

T1 sequence (P43220 24-463): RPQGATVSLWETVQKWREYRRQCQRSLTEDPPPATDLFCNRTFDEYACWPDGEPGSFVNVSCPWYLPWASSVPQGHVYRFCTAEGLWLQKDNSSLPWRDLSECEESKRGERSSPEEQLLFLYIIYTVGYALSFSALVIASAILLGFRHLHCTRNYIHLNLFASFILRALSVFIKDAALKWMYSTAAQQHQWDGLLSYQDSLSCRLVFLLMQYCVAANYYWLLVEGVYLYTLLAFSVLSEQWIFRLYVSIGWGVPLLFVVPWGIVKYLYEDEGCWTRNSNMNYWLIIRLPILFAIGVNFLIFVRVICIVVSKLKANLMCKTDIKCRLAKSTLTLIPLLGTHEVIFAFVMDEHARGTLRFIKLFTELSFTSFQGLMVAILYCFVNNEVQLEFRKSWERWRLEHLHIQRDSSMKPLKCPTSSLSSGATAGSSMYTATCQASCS

EC50 (human GLP-1 receptor) [pM]	EC50 (human glucagon receptor) [pM]	SMILES
11	35	CCCCCCCCCCCCO[C@@H]1O[C@H](C(=O)N[C@@H](CCC(=O)NCCCC[C@H](NC(=O)[C@@H](NC(=O)[C@H](Cc2ccccc2)NC(=O)[C@H](CCC(=O)O)NC(=O)[C@@H]2CCCCNC(=O)CC[C@H](NC(=O)[C@H](CC(=O)O)NC(=O)[C@H](CC(C)C)NC(=O)[C@H](Cc3ccc(O)cc3)NC(=O)[C@H](CCCCN)NC(=O)[C@H](CO)NC(=O)[C@H](Cc3ccc(O)cc3)NC(=O)[C@H](CC(=O)O)NC(=O)[C@H](CO)NC(=O)[C@@H](NC(=O)[C@H](Cc3ccccc3)NC(=O)[C@@H](NC(=O)CNC(=O)[C@H](CCC(N)=O)NC(=O)C(C)(C)NC(=O)[C@@H](N)Cc3c[nH]cn3)[C@@H](C)O)[C@@H](C)O)C(=O)N[C@@H](CCC(N)=O)C(=O)N[C@@H](C)C(=O)N[C@@H](C)C(=O)N2)[C@@H](C)CC)C(=O)N[C@@H](Cc2c[nH]c3ccccc23)C(=O)N[C@@H](CC(C)C)C(=O)N[C@@H](CC(C)C)C(=O)N[C@@H](CCC(N)=O)C(=O)N[C@H](C(N)=O)[C@@H](C)O)C(=O)O)[C@@H](O)[C@H](O)[C@H]1O [EU-A1717]
32	70	CCCCCCCCCCCCO[C@@H]1O[C@H](CO[C@H]2O[C@H](C(=O)NCCCC[C@H](NC(=O)[C@@H](NC(=O)[C@H](Cc3ccccc3)NC(=O)[C@H](CCC(=O)O)NC(=O)[C@@H]3CCCCNC(=O)CC[C@H](NC(=O)[C@H](CC(=O)O)NC(=O)[C@H](CC(C)C)NC(=O)[C@H](Cc4ccc(O)cc4)NC(=O)[C@H](CCCCN)NC(=O)[C@H](CO)NC(=O)[C@H](Cc4ccc(O)cc4)NC(=O)[C@H](CC(=O)O)NC(=O)[C@H](CO)NC(=O)[C@@H](NC(=O)[C@H](Cc4ccccc4)NC(=O)[C@@H](NC(=O)CNC(=O)[C@H](CCC(N)=O)NC(=O)C(C)(C)NC(=O)[C@@H](N)Cc4c[nH]cn4)[C@@H](C)O)[C@@H](C)O)C(=O)N[C@@H](CCC(N)=O)C(=O)N[C@@H](C)C(=O)N[C@@H](C)C(=O)N3)[C@@H](C)CC)C(=O)N[C@@H](Cc3c[nH]c4ccccc34)C(=O)N[C@@H](CC(C)C)C(=O)N[C@@H](CC(C)C)C(=O)N[C@@H](CCC(N)=O)C(=O)N[C@H](C(=O)O)[C@@H](C)O)[C@H](O)[C@H](O)[C@H]2O)[C@@H](O)[C@H](O)[C@H]1O [EU-A1576]
13	32	CCCCCCCCCCO[C@@H]1O[C@H](C(=O)N[C@@H](CCC(=O)NCCCC[C@H](NC(=O)[C@@H](NC(=O)[C@H](Cc2ccccc2)NC(=O)[C@H](CCC(=O)O)NC(=O)[C@@H]2CCCCNC(=O)CC[C@H](NC(=O)[C@H](CC(=O)O)NC(=O)[C@H](CC(C)C)NC(=O)[C@H](Cc3ccc(O)cc3)NC(=O)[C@H](CCCCN)NC(=O)[C@H](CO)NC(=O)[C@H](Cc3ccc(O)cc3)NC(=O)[C@H](CC(=O)O)NC(=O)[C@H](CO)NC(=O)[C@@H](NC(=O)[C@H](Cc3ccccc3)NC(=O)[C@@H](NC(=O)CNC(=O)[C@H](CCC(N)=O)NC(=O)C(C)(C)NC(=O)[C@@H](N)Cc3c[nH]cn3)[C@@H](C)O)[C@@H](C)O)C(=O)N[C@@H](CCC(N)=O)C(=O)N[C@@H](C)C(=O)N[C@@H](C)C(=O)N2)[C@@H](C)CC)C(=O)N[C@@H](Cc2c[nH]c3ccccc23)C(=O)N[C@@H](CC(C)C)C(=O)N[C@@H](CC(C)C)C(=O)N[C@@H](CCC(N)=O)C(=O)N[C@H](C(N)=O)[C@@H](C)O)C(=O)O)[C@@H](O)[C@H](O)[C@H]1O [EU-A1716]
250	780	CCCCCCCCCCCCO[C@@H]1O[C@H](CO[C@H]2O[C@H](C(=O)NCCCC[C@@H]3NC(=O)[C@@H](NC(=O)[C@H](CC(=O)O)NC(=O)[C@H](CC(C)C)NC(=O)[C@H](Cc4ccc(O)cc4)NC(=O)[C@H](CCCCN)NC(=O)[C@H](CO)NC(=O)[C@H](Cc4ccc(O)cc4)NC(=O)[C@H](CC(=O)O)NC(=O)[C@H](CO)NC(=O)[C@@H](NC(=O)[C@H](Cc4ccccc4)NC(=O)[C@@H](NC(=O)CNC(=O)[C@H](CCC(N)=O)NC(=O)C(C)(C)NC(=O)[C@@H](N)Cc4c[nH]cn4)[C@@H](C)O)[C@@H](C)O)CCC(=O)NCCCC[C@@H](C(=O)N[C@@H](CCC(=O)O)C(=O)N[C@@H](Cc4ccccc4)C(=O)N[C@H](C(=O)N[C@@H](CCC(=O)O)C(=O)N[C@@H](Cc4c[nH]c5ccccc45)C(=O)N[C@@H](CC(C)C)C(=O)N[C@@H](CC(C)C)C(=O)N[C@@H](CCC(N)=O)C(=O)N[C@H](C(=O)O)[C@@H](C)O)[C@@H](C)CC)NC(=O)[C@H](C)NC(=O)[C@H](C)NC3=O)[C@H](O)[C@H](O)[C@H]2O)[C@@H](O)[C@H](O)[C@H]1O [EU-A1592] (H-H[Aib]QGTFTSDYSKYLDEK(Melibiouronoyl(1β-O-dodecyl))AAKEFIEWLLQT-OH; lactam 16-20; N-terminus assumed)
11	59	CCCCCCCCCCCCCCO[C@@H]1O[C@H](CO[C@H]2O[C@H](C(=O)NCCCC[C@H](N)C(=O)NCCCC[C@H](NC(=O)[C@@H](NC(=O)[C@H](Cc3ccccc3)NC(=O)[C@H](CCC(=O)O)NC(=O)[C@@H]3CCCCNC(=O)CC[C@H](NC(=O)[C@H](CC(=O)O)NC(=O)[C@H](CC(C)C)NC(=O)[C@H](Cc4ccc(O)cc4)NC(=O)[C@H](CCCCN)NC(=O)[C@H](CO)NC(=O)[C@H](Cc4ccc(O)cc4)NC(=O)[C@H](CC(=O)O)NC(=O)[C@H](CO)NC(=O)[C@@H](NC(=O)[C@H](Cc4ccccc4)NC(=O)[C@@H](NC(=O)CNC(=O)[C@H](CCC(N)=O)NC(=O)C(C)(C)NC(=O)[C@@H](N)Cc4c[nH]cn4)[C@@H](C)O)[C@@H](C)O)C(=O)N[C@@H](CCC(N)=O)C(=O)N[C@@H](C)C(=O)N[C@@H](C)C(=O)N3)[C@@H](C)CC)C(=O)N[C@@H](Cc3c[nH]c4ccccc34)C(=O)N[C@@H](CC(C)C)C(=O)N[C@@H](CC(C)C)C(=O)N[C@@H](CCC(N)=O)C(=O)N[C@H](C(=O)O)[C@@H](C)O)[C@H](O)[C@H](O)[C@H]2O)[C@@H](O)[C@H](O)[C@H]1O [EU-A1612]
119	598	CCCCCCCCCCCCCCO[C@@H]1O[C@H](CO[C@H]2O[C@H](C(=O)N[C@@H](CCC(=O)NCCCC[C@H](NC(=O)[C@@H](NC(=O)[C@H](Cc3ccccc3)NC(=O)[C@H](CCC(=O)O)NC(=O)[C@@H]3CCCCNC(=O)CC[C@H](NC(=O)[C@H](CC(=O)O)NC(=O)[C@H](CC(C)C)NC(=O)[C@H](Cc4ccc(O)cc4)NC(=O)[C@H](CCCCN)NC(=O)[C@H](CO)NC(=O)[C@H](Cc4ccc(O)cc4)NC(=O)[C@H](CC(=O)O)NC(=O)[C@H](CO)NC(=O)[C@@H](NC(=O)[C@H](Cc4ccccc4)NC(=O)[C@@H](NC(=O)CNC(=O)[C@H](CCC(N)=O)NC(=O)C(C)(C)NC(=O)[C@@H](N)Cc4c[nH]cn4)[C@@H](C)O)[C@@H](C)O)C(=O)N[C@@H](CCC(N)=O)C(=O)N[C@@H](C)C(=O)N[C@@H](C)C(=O)N3)[C@@H](C)CC)C(=O)N[C@@H](Cc3c[nH]c4ccccc34)C(=O)N[C@@H](CC(C)C)C(=O)N[C@@H](CC(C)C)C(=O)N[C@@H](CCC(N)=O)C(=O)N[C@H](C(=O)O)[C@@H](C)O)C(=O)O)[C@H](O)[C@H](O)[C@H]2O)[C@@H](O)[C@H](O)[C@H]1O [EU-A1617]
493	1230	CCCCCCCCCCCCCCCCO[C@@H]1O[C@H](CO[C@H]2O[C@H](C(=O)NCCCC[C@H](NC(=O)[C@H](CC(=O)O)NC(=O)[C@H](CO)NC(=O)[C@@H](NC(=O)[C@H](Cc3ccccc3)NC(=O)[C@@H](NC(=O)CNC(=O)[C@H](CCC(N)=O)NC(=O)C(C)(C)NC(=O)[C@@H](N)Cc3c[nH]cn3)[C@@H](C)O)[C@@H](C)O)C(=O)N[C@@H](CO)C(=O)N[C@@H](CCCCN)C(=O)N[C@@H](Cc3ccc(O)cc3)C(=O)N[C@@H](CC(C)C)C(=O)N[C@@H](CC(=O)O)C(=O)N[C@H]3CCC(=O)NCCCC[C@@H](C(=O)N[C@@H](CCC(=O)O)C(=O)N[C@@H](Cc4ccccc4)C(=O)N[C@H](C(=O)N[C@@H](CCC(N)=O)C(=O)N[C@@H](Cc4c[nH]c5ccccc45)C(=O)N[C@@H](CC(C)C)C(=O)N[C@@H](CC(C)C)C(=O)N[C@@H](CCC(N)=O)C(=O)N[C@H](C(N)=O)[C@@H](C)O)[C@@H](C)CC)NC(=O)[C@H](C)NC(=O)[C@H](C)NC(=O)[C@H](CCC(N)=O)NC3=O)[C@H](O)[C@H](O)[C@H]2O)[C@@H](O)[C@H](O)[C@H]1O [EU-A1596] (H-H[Aib]QGTFTSDK(X1)SKYLDEQAAKEFIQWLLQT-NH2; lactam 16-20; N-terminus assumed)
86	1030	CCCCCCCCCCCCO[C@@H]1O[C@H](CO[C@H]2O[C@H](C(=O)NCCCC[C@H](NC(=O)[C@@H](NC(=O)[C@H](Cc3ccccc3)NC(=O)[C@H](CCC(=O)O)NC(=O)[C@@H]3CCCCNC(=O)CC[C@H](NC(=O)[C@H](CC(=O)O)NC(=O)[C@H](CC(C)C)NC(=O)[C@H](Cc4ccc(O)cc4)NC(=O)[C@H](CCCCN)NC(=O)[C@H](CO)NC(=O)[C@H](Cc4ccc(O)cc4)NC(=O)[C@H](CC(=O)O)NC(=O)[C@H](CO)NC(=O)[C@@H](NC(=O)[C@H](Cc4ccccc4)NC(=O)[C@@H](NC(=O)CNC(=O)[C@H](CCC(N)=O)NC(=O)C(C)(C)NC(=O)[C@@H](N)Cc4c[nH]cn4)[C@@H](C)O)[C@@H](C)O)C(=O)N[C@@H](CCC(=O)O)C(=O)N[C@@H](C)C(=O)N[C@@H](C)C(=O)N3)[C@@H](C)CC)C(=O)N[C@@H](Cc3c[nH]c4ccccc34)C(=O)N[C@@H](CC(C)C)C(=O)N[C@@H](CC(C)C)C(=O)N[C@@H](CCC(N)=O)C(=O)N[C@H](C(=O)O)[C@@H](C)O)[C@H](O)[C@H](O)[C@H]2O)[C@@H](O)[C@H](O)[C@H]1O [EU-A1581] (H-H[Aib]QGTFTSDYSKYLDEEAAKEFIK(Melibiouronoyl(1β-O-dodecyl))WLLQT-OH; lactam 16-20; N-terminus assumed)
